Columns and labels:
CCR5 [1] = target: T1, CCR5 (Homo sapiens, UniProt P51681); assay: CCR5-mediated CCF (cell-cell fusion) assay, Hela-R5 / CEM-NKr-CCR5-Luc luciferase readout; type: cell-based; parameters: host or cells: CEM-NKr-CCR5-Luc cells, co-cultured with Hela-R5 cells expressing gp160 and Tat; settings: Hela-R5 and CEM-NKr-CCR5-Luc co-culture 24 hrs
Method: The capacity for novel compounds of the present invention to bind to the CCR5 receptor and thereby antagonize CCR5 function can be evaluated with assay systems known in the art.
Hela-R5 cells (express gp160 from R5-tropic virus and HIV-1 Tat) were plated in 384 well white culture plates (BD Bioscience, Palo Alto, Calif.) at 7.5×10^3 cells per well in phenol red-free Dulbecco's Modified Eagle Medium (DMEM) supplemented with 10% FBS, 1× Pen-Strep, 300 μg/ml G418, 100 μg/ml hygromycin, and 1 μg/ml Doxycycline (Dox) (BD Bioscience, Palo Alto, Calif.), using Multimek (Beckman, Fullerton, Calif.) and incubated at 37° C. overnight to induce the expression of gp160. Ten μl diluted compounds in medium containing 5% DMSO were added to the cells, followed by the addition of CEM-NKr-CCR5-Luc (obtained from NIH AIDS Research & Reference Reagents Program) that expresses CD4 and CCR5 and carries a HIV-2 long terminal repeat (LTR)-driven luciferase reporter gene at 1.5×10^4 cells/15 μL/well and incubated for 24 hrs. At the end of co-culture, 15 μl of Steady-Glo luciferase substrate was added into each well, and the cultures were sealed and gently shaken for 45 min. The luciferase activity were measured for 10 sec per well as luminescence by using 16-channel TopCount NXT (PerkinElmer, Shelton, Conn.) with 10 min dark adaptation and the readout is count per second (CPS). For the drug interaction experiments, small molecule compounds or antibodies were serially diluted in serum-free and phenol red-free RPMI containing 5% dimethyl sulfoxide (DMSO) (CalBiochem, La Jolla, Calif.) and 1× Pen-Strep. Five μl each of the two diluted compound or mAb to be tested for drug-drug interactions were added to the Hela-R5 cells right before the addition of target cells.

CCR5 [2] = target: T1, CCR5; assay: Human CCR5 receptor-ligand binding (RANTES) assay; parameters: expressed in transfected cells; settings: 125I RANTES 0.1 nM, CHO-Gα16-hCCR5 cells
Method: The construct was transfected into CHO-Gα16 cells by using Fugene Reagent (Roche).
Adherent cells in […] tissue culture flask (˜90% confluent) were harvested using 1 mM EDTA in PBS (phosphate-buffered saline) without Ca^2+ and Mg^2+. Cells were washed twice with PBS containing no Ca^2+ and Mg^2+.
Eighty μl CHO-Gα16-hCCR5 (1×10^6/ml) cells were added to 96 well plates.
The compound dilutions were made in PBS, 1% BSA. Total reaction volume was 100 μl per well. The test compounds were added to the cells prior to the addition of radioligand.
After incubation, the cells were harvested onto GF/C filter plates using Packard cell harvester. Filters were pretreated with 0.3% PEI/0.2% BSA for 30 min. The filter plate was washed rapidly 5 times with 25 mM HEPES, 500 mM NaCl, 1 mM CaCl2 and 5 mM MgCl2 adjusted to pH 7.1. Plates were dried in oven (70° C.) for 20 min, added with 40 μl scintillation fluid and sealed with Packard TopSeal-A. Packard Top Count was used to measure of the radioactivity for 1 min per well.
Total binding was determined with control wells added with radioisotope and buffer and the non-specific binding was determined using an excess cold RANTES to some of the control wells. Specific binding was determined by subtracting the non-specific form total binding. […] IC50 values were determined using varying concentrations of the test ligand in triplicates and the data was analyzed using GraphPad Prism (GraphPad, San Diego, Calif.).

[3] = system: collagen induced arthritis; settings: collagen-induced arthritis model; cited from earlier work
CCR5 [4] = target: T1, CCR5; assay: Chemotaxis assay with L1.2hCCR5 cells; type: cell-based; parameters: expressed in transfected cells; settings: Inhibition of RANTES stimulated chemotaxis
Source text: A chemotaxis assay is a functional assay which measures the ability of a non-adherent cell line expressing human CCR5 receptor to migrate across a membrane in response to either test compounds or natural attractant ligand(s) (i.e., RANTES, MIP-1β). Generally, chemotaxis assays monitor the directional movement or migration of a suitable cell (such as a leukocyte (e.g., lymphocyte, eosinophil, basophil)) into or through a barrier (e.g., endothelium, a permeable filter membrane), toward, from a first surface of the barrier toward an opposite second surface containing attractant ligands. Membranes or filters provide convenient barriers to monitor the directional movement or migration of a suitable cell into or through a filter, toward increased levels of an attractant. […]
After the incubation period, the cells are scraped off the filter and the plates are spun in a table top centrifuge at 2,000 rpm for 10 min. The filter is then removed and the density of the cells that have migrated to the bottom wells is detected using CyQUANT^R cell proliferation assay kit (Invitrogen) and the Spectra MAX GeminiXS plate reader (Molecular Devices) according to the manufacturers' instructions. Using the fluorescence measurements the percent migration is determined by % migration=[1−(max−obs)/(max−min)]×100. […] This is calculated with Excel Fit.

T1 sequence (P51681 whole entry, the tested form may be a part): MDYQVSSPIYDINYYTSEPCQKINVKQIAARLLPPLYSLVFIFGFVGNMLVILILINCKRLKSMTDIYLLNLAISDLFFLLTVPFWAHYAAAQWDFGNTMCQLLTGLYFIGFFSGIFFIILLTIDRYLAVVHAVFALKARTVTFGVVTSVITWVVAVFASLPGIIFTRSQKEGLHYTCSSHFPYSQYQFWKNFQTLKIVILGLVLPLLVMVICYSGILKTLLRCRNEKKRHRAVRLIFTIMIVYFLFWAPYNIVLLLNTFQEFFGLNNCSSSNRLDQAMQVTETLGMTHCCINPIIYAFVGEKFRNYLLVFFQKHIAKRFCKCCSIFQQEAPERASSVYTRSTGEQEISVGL

Row | Compound | IC50 (CCR5 [1]) [nM] | IC50 (CCR5 [2]) [nM] | incidence and severity of arthritis [3] | infiltration of inflammatory CCR5+ T-cells into the joint [3] | IC50 (CCR5 [4]) [nM]
1 | 1-(4-{3-[5-(4,6-Dimethyl-pyrimidine-5-carbonyl)-hexahydro-pyrrolo[3,4-c]pyrrol-2-yl]-1-phenyl-propyl}-piperidin-1-yl)-2-methyl-propan-1-one [V-15] | 202 | 8.2 |  |  | 
2 | Cc1ncnc(C)c1C(=O)N1CC2CN(CCC3(c4ccccc4)CCN(C(=O)OC(C)(C)C)CC3)CC2C1 (stereo not shown) [I-1, tert-Butyl 4-{2-[5-(4,6-dimethyl-pyrimidine-5-carbonyl)-hexahydro-pyrrolo[3,4-c]pyrrol-2-yl]-ethyl}-4-phenyl-piperidine-1-carboxylate] | 835 | 835 |  |  | 
3 | Cc1ncnc(C)c1C(=O)N1CC2CN(CCC3(c4cccc(F)c4)CCN(C(=O)c4ccccc4)CC3)CC2C1 (stereo not shown) [I-3] | 306 | 77.6 |  |  | 
4 | Cc1ncnc(C)c1C(=O)N1CC2CN(CCC3(c4ccccc4)CCN(C(=O)c4ccc(S(N)(=O)=O)cc4)CC3)CC2C1 (stereo not shown) [I-9] | 2500 | 500 |  |  | 
5 | Cc1ncnc(C)c1C(=O)N1CC2CN(CCC3(c4ccccc4)CCN(C(=O)c4cccc(S(=O)(=O)N(C)C)c4)CC3)CC2C1 (stereo not shown) [I-14] | 1200 | 48.4 |  |  | 
6 | Cc1ncnc(C)c1C(=O)N1CC2CN(CCC3(c4cccc(F)c4)CCN(C(=O)c4cccc(S(=O)(=O)N(C)C)c4)CC3)CC2C1 (stereo not shown) [I-19] | 393 | 50.9 |  |  | 
7 | Cc1ncnc(C)c1C(=O)N1CC2CN(CCC3(c4ccccc4)CN(C(=O)CC4CCCC4)C3)CC2C1 (stereo not shown) [II-6] | 136 | 27.7 |  |  | 
8 | Cc1ncnc(C)c1C(=O)N1CC2CN(CCC3(c4ccccc4)CN(C(=O)C4(C(F)(F)F)CC4)C3)CC2C1 (stereo not shown) [II-15] | 486 | 51.5 |  |  | 
9 | Cc1ncnc(C)c1C(=O)N1CC2CN(CCC3(c4ccccc4)CN(S(=O)(=O)C(C)C)C3)CC2C1 (stereo not shown) [II-19] |  | 105 |  |  | 
10 | Cc1ncnc(C)c1C(=O)N1CC2CN(CCC3(c4ccccc4)CN(S(=O)(=O)C4CCCC4)C3)CC2C1 (stereo not shown) [II-22, {5-[2-(1-Cyclopentanesulfonyl-3-phenyl-azetidin-3-yl)-ethyl]-hexahydro-pyrrolo[3,4-c]pyrrol-2-yl}-(4,6-dimethyl-pyrimidin-5-yl)-methanone] | 458 | 27.1 |  |  | 
11 | Cc1cc(=O)oc(C)c1C(=O)N1CC2CN(CCC3(c4ccccc4)CN(C(=O)C4CCC(F)(F)CC4)C3)CC2C1 (stereo not shown) [II-33] | 2.6 | 11.3 |  |  | 
12 | Cc1ncnc(C)c1C(=O)N1CC2CN(CCC3(c4ccccc4)CN(C(=O)C4CCC(F)(F)CC4)C3)CC2C1 (stereo not shown) [II-39] | 9.5 | 18.8 |  |  | 
13 | Cc1cc(C#N)nc(C)c1C(=O)N1CC2CN(CCC3(c4ccccc4)CCN(C(=O)C(C)(C)C)C3)CC2C1 (stereo not shown) [III-8] | 360 | 68.8 |  |  | 
14 | Cc1ncnc(C)c1C(=O)N1CC2CN(CCC(c3ccccc3)C3CN(C(=O)C(C)C)C3)CC2C1 (stereo not shown) [IV-10] | 458 | 244 |  |  | 
15 | Cc1ncnc(C)c1C(=O)N1CC2CN(CCC(c3cccc(F)c3)C3CN(S(=O)(=O)c4cccc(F)c4)C3)CC2C1 (stereo not shown) [IV-14] | 4.2 | 38.6 |  |  | 
16 | Cc1ccc(-c2ccc3c(c2)C=C(C(=O)Nc2ccc(C[N+](C)(C)C4CCOCC4)cc2)CCC3)cc1.[Cl-] [TAK-779] |  |  | reduce both the incidence and severity of arthritis | inhibited | 
17 | COC(=O)N1CCC(C(CCN2CC3CN(C(=O)c4c(C)ncnc4C)CC3C2)c2ccccc2)CC1 (stereo not shown) [V-7, 4-{3-[5-(4,6-Dimethyl-pyrimidine-5-carbonyl)-hexahydro-pyrrolo[3,4-c]pyrrol-2-yl]-1-phenyl-propyl}-piperidine-1-carboxylic acid methyl ester] | 744 | 102 |  |  | 
18 | Cc1ncnc(C)c1C(=O)N1CC2CN(CCC(c3ccccc3)C3CCN(S(C)(=O)=O)CC3)CC2C1 (stereo not shown) [V-12] |  |  |  |  | 765
